2 compounds from PMC12297304, “Molecular networking derived from untargeted LC-MS/MS analysis to discover inhibitors of RANKL-induced osteoclastogenesis from Egyptian marine sponge-associated fungi” (Scientific Reports, 2025) can be followed below.

Data set [1] concerns RANKL-induced formation of MNCs from RAW264 macrophages. As to the kind of experiment: Multinucleated TRAP+ve osteoclast (MNCs) counting assay. The data set is classed as cell-based, murine. As to conditions: Mus musculus, RAW264.7, 96 h; RAW264 cells, RANKL 50 ng/mL, 4 days; read-out: IC50, inhibition of RANKL-induced formation of multinucleated osteoclasts (MNCs). The protocol:
EtOAc fractions of all fungal CH3OH extracts were tested for their ability to inhibit TRAP activity and the formation of multinucleated osteoclasts (MNCs) in RANKL-treated RAW264 macrophages as previously reported[7],[24]. Briefly, RAW264 cells (RIKEN Cell Bank, Tsukuba) were cultured in MEMα medium supplemented with 10% heat-inactivated fetal bovine serum and 1% penicillin/streptomycin and incubated at 37 °C in a 5% CO2 humidified atmosphere in two 96-well plates at a density of 1000 and 6000 cells/well, for TRAP assay and MNCs staining assay, respectively. Samples were then added at a concentration of 50 and 20 µg/mL for extracts, 50, 20, and 10 µM for pure compounds, and 83 µM for the standard quercetin. […]
Following a 4-day incubation period, the differentiated cells were fixed with 4% paraformaldehyde solution (Sigma–Aldrich, USA), washed with PBS, and stained using a TRAP-staining solution, which consisted of 50 mM sodium tartrate, 45 mM sodium acetate, 0.1 mg/mL naphthol AS-MX phosphate (Sigma– Aldrich, USA), and 0.6 mg/mL fast red violet LB salt (Sigma–Aldrich, USA), pH 5.2, for 1 h or longer at room temperature. TRAP-positive cells, that stained red and contained 3 or more nuclei were determined to be multinuclear osteoclasts and were quantified in each well by counting MNCs in 8 fields/well using a light microscope.

The subject of the next data set is RAW264 macrophages. As to the kind of experiment: MTT cytotoxicity assay. Type of data set: cell-based, murine. As to conditions: at the highest tested concentration. As to the method: After incubation of cells for one day, media was aspired and replaced with new one supplemented with treatments, whereas controls contained only DMSO. Cells were then kept at 37 °C for three days. Finally, 50 µL of 3-(4,5-dimethylthiazol-2-yl)−2,[…] bromide (MTT) solution (150 µg/mL in medium) was added after aspiration of medium, incubated under the same conditions for 3 h. Then 200 µL of DMSO were added to each well, after removal of the reaction solution, to dissolve the formed formazan salt crystals, and optical density was measured at 570 nm with a microplate reader.

“Also recorded” adds a separate entry of the source.

In the case of `COCC(O)COc1ccc(C(C)(C)c2ccc(OCC(O)COC)cc2)cc1` (stereo not shown) [Compound 1, 2,2-bis‐[4‐(2‐hydroxy-3-methoxy-propoxy)phenyl]propane], in data set [1], the half-maximal inhibitory concentration (IC50) – broadly, the midpoint of a concentration-inhibition curve – was determined as 57.1 µM. Besides, the “Toxic effect against RAW264 macrophages” value in the data set on RAW264 macrophages is “without cytotoxicity; also recorded: no toxic effect”.
Regarding `COc1cc(O)c2c(c1)C1=CC(O)C(O)CC1(C)OC2=O` (stereo not shown) [Compound 8, altenuene], in data set [1], the IC50 came to 38.4 µM. In addition, the “Toxic effect against RAW264 macrophages” value in the data set on RAW264 macrophages was “without cytotoxicity; also recorded: no toxic effect”.
